Like-named read-outs stand apart in the source and are kept apart here.
Tests used:
Assay type in all cases: cell-based
[1] = system: prostate cancer cells DU145; assay: DNA synthesis (3H-thymidine incorporation) in DU145; conditions: Homo sapiens, DU-145
Experimental: (§1) ^3H-Thymidine incorporation: DU145 and U-87MG cells were harvested by trypsinisation and seeded at 10,000 cells/well in a 96 well plate. The cells were incubated with the samples at the required concentrations for 24 hrs and/or 48 hrs at 37° C. and 5% CO2. The cells were pulsed with ^3H-Thymidine (1 μCi/ml) (Perkin Elmer) for 24 hours. After which, they were washed with PBS and fixed twice with methanol for 5 min. The protein was precipitated by 0.3N TCA. After a washing step 150 μl 0.3N NaOH was added for 15 min to lyse the cells. Back ground controls were measured with the samples without cells.
(§2) To detect the incorporated ^3H-Thymidine for the DNA synthesis the samples were transferred in scintillation tubes with scintillation cocktail. The quantification was performed in a Tri-Carb 1900 TR liquid scintillation counter (Packard, USA).
(§3) The effect of several concentrations of samples was measured by determining amount of radiolabel (dpm) under the assay conditions. Dose related values were expressed as a percentage of the positive control values. Sample points were measured as quadruplicates, errors are expressed as standard deviations.

[2] = system: glioblastoma cells U-87 MG; assay: DNA synthesis (3H-thymidine incorporation) in U-87MG; conditions: Homo sapiens, 48 h incubation
Experimental: as §1, §2, §3

[3] = biological target: T1, 5-LOX (Homo sapiens, UniProt P09917); assay: 5-LOX inhibition assay (LTB4) in differentiated HL-60 granulocytes; conditions: reference listed under the 5-LOX IC50 table
T1 construct: endogenous in cells; host or cells: HL-60 (human myeloid leukemia, DSMZ ACC 3), differentiated with DMSO
T1 sequence (P09917 1-674): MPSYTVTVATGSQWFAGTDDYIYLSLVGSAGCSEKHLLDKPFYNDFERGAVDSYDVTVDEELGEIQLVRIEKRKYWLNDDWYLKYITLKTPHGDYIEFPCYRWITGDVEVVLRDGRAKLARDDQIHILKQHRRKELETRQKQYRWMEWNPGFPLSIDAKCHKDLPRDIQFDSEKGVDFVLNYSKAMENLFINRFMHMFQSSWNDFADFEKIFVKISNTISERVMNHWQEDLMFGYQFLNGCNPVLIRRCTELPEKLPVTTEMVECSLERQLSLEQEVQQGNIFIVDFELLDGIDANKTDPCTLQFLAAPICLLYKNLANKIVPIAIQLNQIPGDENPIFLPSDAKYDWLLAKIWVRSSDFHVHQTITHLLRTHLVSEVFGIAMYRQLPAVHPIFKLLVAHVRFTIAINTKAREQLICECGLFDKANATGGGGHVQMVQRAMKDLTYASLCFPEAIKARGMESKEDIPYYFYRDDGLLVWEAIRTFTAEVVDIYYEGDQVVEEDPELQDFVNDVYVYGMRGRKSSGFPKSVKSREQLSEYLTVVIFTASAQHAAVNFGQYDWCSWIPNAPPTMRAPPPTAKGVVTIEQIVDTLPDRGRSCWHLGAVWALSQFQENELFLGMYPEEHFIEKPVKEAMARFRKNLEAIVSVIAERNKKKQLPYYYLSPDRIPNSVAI
Experimental: Human HL-60 cells (myeloid leukemia, DSMZ No ACC 3) were kept at 37° C. in a humidified atmosphere with 5% CO2 and cultured in complete RPMI1640 medium supplemented with 10% fetal calf serum and 1% (v/v) penicillin/streptomycin solution. Cells were differentiated for 6 to 8 days with DMSO (1.2% v/v). The 5-LOX activity assay was carried out as described by Bennet et al. [ref: 2]. Briefly, differentiated cells were harvested, suspended in PBS containing Ca^2+ (1 mM) and glucose (1 mM) and distributed into a 96-well microtiter plate (1×10^6 cells/well).
After preincubation with sample or vehicle for 15 min at room temperature the reaction was started by adding calcium ionophore A 23187 (5 uM) and arachidonic acid (10 uM). All values are final concentrations. […] After neutralization with 50 μl PBS and centrifugation (340×g) for 10 min the LTB4 concentration in the supernatant was determined.
Effects of samples and reference compound [ref: 3] on the activity of 5-LOX were measured by determining the quantity of leukotriene B4 produced under assay conditions. The quantification of leukotriene B4 was performed with Enzyme Immuno Assay (EIA) Kit from Cayman No 520111 (LTB4). The optical densities were measured at wavelength=415 nm. The quantities were calculated using a standard curve of at least 5 different concentrations. Sample points were measured as duplicates. […]

## CC[C@@]1(O)C(=O)OCc2c1cc1n(c2=O)Cc2cc3ccccc3nc2-1 [Camptothecin]
[1]; DU145, 24 h incubation, read-out: IC50 (nM) on DNA synthesis, 24 h incubation
  IC50: 152 nM
[1]; DU145, 48 h incubation, read-out: IC50 (nM) on DNA synthesis, 48 h incubation
  IC50: 7.5 nM
[2]
  IC50: 3.32 nM

## C[C@@H]1C[C@H]2[C@@H]3CCC4=CC(=O)C=C[C@]4(C)[C@@]3(F)[C@@H](O)C[C@]2(C)[C@@]1(O)C(=O)CO [Dexamethasone]
[3]
  IC50: 0.28 nM
